# Laboratory results taken from publication PMC5218480 (PLoS ONE, 2017).
# Test system: MV-4-11 cells
# Experiment: Gene expression microarray analysis (Affymetrix PrimeView) and GSEA
# Type: cell-based, human
# Set-up: RFU PODN (11730768_x_at) / Fold change /veh PODN (11730768_x_at) / RFU LINC00158 (11744669_a_at) / Fold change /veh LINC00158 (11744669_a_at) / RFU DUSP10 (11751237_a_at) / Fold change /veh DUSP10 (11751237_a_at) / RFU ID3 (11757404_x_at) / Fold change /veh ID3 (11757404_x_at) / RFU PLEKHG5 (11737974_s_at) / Fold change /veh PLEKHG5 (11737974_s_at) / RFU LRRC4B (11730491_at) / Fold change /veh LRRC4B (11730491_at) / RFU GIMAP4 (11747438_a_at) / Fold change /veh GIMAP4 (11747438_a_at) / RFU KRT8 (11758183_x_at) / Fold change /veh KRT8 (11758183_x_at) / RFU CNN1 (11734310_a_at) / Fold change /veh CNN1 (11734310_a_at) / RFU VPS37D (11726825_at) / Fold change /veh VPS37D (11726825_at) / RFU C10orf10 (11716522_x_at) / Fold change /veh C10orf10 (11716522_x_at) / RFU KIR2DL2 /// KIR2DL4 /// KIR2DL5A /// KIR2DL5B /// KIR2DS1 /// KIR2DS2 /// KIR2DS3 /// KIR2DS4 /// KIR3DL3 /// KIR3DL3 /// KIR3DS1 (11738374_at) / Fold change /veh KIR2DL2 /// KIR2DL4 /// KIR2DL5A /// KIR2DL5B /// KIR2DS1 /// KIR2DS2 /// KIR2DS3 /// KIR2DS4 /// KIR3DL3 /// KIR3DL3 /// KIR3DS1 (11738374_at) / RFU C1QL1 (11718748_at) / Fold change /veh C1QL1 (11718748_at) / RFU TMPRSS4 (11747572_a_at) / Fold change /veh TMPRSS4 (11747572_a_at) / RFU HAMP (11756126_x_at) / Fold change /veh HAMP (11756126_x_at) / RFU RNFT2 (11725882_a_at) / Fold change /veh RNFT2 (11725882_a_at) / RFU NR4A2 (11747474_a_at) / Fold change /veh NR4A2 (11747474_a_at) / RFU ABCC12 (11746883_a_at) / Fold change /veh ABCC12 (11746883_a_at) / RFU TMEM136 (11760407_x_at) / Fold change /veh TMEM136 (11760407_x_at) / RFU CLDN22 /// WWC2 (11732394_at) / Fold change /veh CLDN22 /// WWC2 (11732394_at) / RFU HLA-DPB1 (11760878_x_at) / Fold change /veh HLA-DPB1 (11760878_x_at) / RFU SPINT1 (11716480_a_at) / Fold change /veh SPINT1 (11716480_a_at) / RFU GAP43 (11754022_s_at) / Fold change /veh GAP43 (11754022_s_at) / RFU A4GNT (11735810_at) / Fold change /veh A4GNT (11735810_at) / RFU PRB3 (11715151_x_at) / Fold change /veh PRB3 (11715151_x_at) / RFU TUBB4B (11761932_at) / Fold change /veh TUBB4B (11761932_at) / RFU CAPN14 (11732068_a_at) / Fold change /veh CAPN14 (11732068_a_at) / RFU TMCC2 (11721928_a_at) / Fold change /veh TMCC2 (11721928_a_at) / RFU IRGQ (11745062_a_at) / Fold change /veh IRGQ (11745062_a_at) / RFU FAM174B (11720279_a_at) / Fold change /veh FAM174B (11720279_a_at) / RFU TMPRSS4 (11748680_a_at) / Fold change /veh TMPRSS4 (11748680_a_at) / RFU FAM212B (11763350_a_at) / Fold change /veh FAM212B (11763350_a_at) / RFU PLEKHG5 (11743358_a_at) / Fold change /veh PLEKHG5 (11743358_a_at) / RFU ZSCAN30 (11745921_a_at) / Fold change /veh ZSCAN30 (11745921_a_at) / RFU CMKLR1 (11741424_a_at) / Fold change /veh CMKLR1 (11741424_a_at) / RFU LOC101060620 /// MAPK8IP1 (11723275_at) / Fold change /veh LOC101060620 /// MAPK8IP1 (11723275_at) / RFU SPTSSB (11747773_x_at) / Fold change /veh SPTSSB (11747773_x_at) / RFU PRSS12 (11739890_at) / Fold change /veh PRSS12 (11739890_at) / RFU BIN1 (11741810_x_at) / Fold change /veh BIN1 (11741810_x_at) / RFU WNT11 (11732464_a_at) / Fold change /veh WNT11 (11732464_a_at) / RFU C10orf10 (11716521_a_at) / Fold change /veh C10orf10 (11716521_a_at) / RFU C5orf56 (11738089_at) / Fold change /veh C5orf56 (11738089_at) / RFU CYB561 (11721691_x_at) / Fold change /veh CYB561 (11721691_x_at) / RFU ANKRD19P (11752326_a_at) / Fold change /veh ANKRD19P (11752326_a_at) / RFU OR2T12 /// OR2T33 /// OR2T8 (11738714_s_at) / Fold change /veh OR2T12 /// OR2T33 /// OR2T8 (11738714_s_at) / RFU VCAN (11748164_a_at) / Fold change /veh VCAN (11748164_a_at) / RFU JSRP1 (11732532_at) / Fold change /veh JSRP1 (11732532_at) / RFU KRTAP10-11 (11738290_x_at) / Fold change /veh KRTAP10-11 (11738290_x_at) / RFU MYO3A (11730013_a_at) / Fold change /veh MYO3A (11730013_a_at) / RFU EBF3 (11725865_a_at) / Fold change /veh EBF3 (11725865_a_at) / RFU CAMK2N1 (11719241_x_at) / Fold change /veh CAMK2N1 (11719241_x_at) / RFU C5orf56 (11738088_a_at) / Fold change /veh C5orf56 (11738088_a_at) / RFU OLFML3 (11715873_a_at) / Fold change /veh OLFML3 (11715873_a_at) / RFU LOC100653217 /// NTM (11731650_a_at) / Fold change /veh LOC100653217 /// NTM (11731650_a_at) / RFU MAPK11 (11762145_a_at) / Fold change /veh MAPK11 (11762145_a_at) / RFU FIZ1 (11724087_x_at) / Fold change /veh FIZ1 (11724087_x_at) / RFU OASL (11726364_x_at) / Fold change /veh OASL (11726364_x_at) / RFU SOX15 (11748057_x_at) / Fold change /veh SOX15 (11748057_x_at) / RFU CD79A (11719716_a_at) / Fold change /veh CD79A (11719716_a_at) / RFU HIST1H1D (11736915_at) / Fold change /veh HIST1H1D (11736915_at) / RFU CASKIN2 (11723855_a_at) / Fold change /veh CASKIN2 (11723855_a_at) / RFU LOC730098 (11760151_x_at) / Fold change /veh LOC730098 (11760151_x_at) / RFU OR4N2 (11742367_at) / Fold change /veh OR4N2 (11742367_at) / RFU PRRT2 (11749266_a_at) / Fold change /veh PRRT2 (11749266_a_at) / RFU SNX32 (11753110_a_at) / Fold change /veh SNX32 (11753110_a_at) / RFU CDHR5 (11726645_a_at) / Fold change /veh CDHR5 (11726645_a_at) / RFU RCAN1 (11760418_a_at) / Fold change /veh RCAN1 (11760418_a_at) / RFU FAM167A (11723789_a_at) / Fold change /veh FAM167A (11723789_a_at) / RFU FAM26E (11764081_at) / Fold change /veh FAM26E (11764081_at) / RFU ISYNA1 (11749810_s_at) / Fold change /veh ISYNA1 (11749810_s_at) / RFU ACY1 (11761880_at) / Fold change /veh ACY1 (11761880_at) / RFU 11764098_at / Fold change /veh 11764098_at / RFU SAMD14 (11745864_x_at) / Fold change /veh SAMD14 (11745864_x_at) / RFU NPB (11741838_a_at) / Fold change /veh NPB (11741838_a_at) / RFU TMPRSS6 (11731388_a_at) / Fold change /veh TMPRSS6 (11731388_a_at) / RFU KRTAP10-2 (11738614_at) / Fold change /veh KRTAP10-2 (11738614_at) / RFU ARHGAP8 /// PRR5-ARHGAP8 (11727945_x_at) / Fold change /veh ARHGAP8 /// PRR5-ARHGAP8 (11727945_x_at) / RFU KRTAP5-7 /// NADSYN1 (11734609_at) / Fold change /veh KRTAP5-7 /// NADSYN1 (11734609_at) / RFU RASL12 (11751679_a_at) / Fold change /veh RASL12 (11751679_a_at) / RFU CDKN2B (11736163_a_at) / Fold change /veh CDKN2B (11736163_a_at) / RFU PRF1 (11729649_at) / Fold change /veh PRF1 (11729649_at) / RFU, ZNF638 /// ZNF638-IT1 / Fold change vs veh, ZNF638 /// ZNF638-IT1 / RFU, PANK3 / Fold change vs veh, PANK3 / RFU, SH3YL1 / Fold change vs veh, SH3YL1 / RFU, ZEB2 / Fold change vs veh, ZEB2 / RFU, NRIP1 / Fold change vs veh, NRIP1 / RFU, PTTG1IP / Fold change vs veh, PTTG1IP / RFU, CAPN2 / Fold change vs veh, CAPN2 / RFU, MED14 / Fold change vs veh, MED14 / RFU, SNORA58 / Fold change vs veh, SNORA58 / RFU, C1orf63 / Fold change vs veh, C1orf63 / RFU, LRRFIP1 / Fold change vs veh, LRRFIP1 / RFU, NDUFAF7 / Fold change vs veh, NDUFAF7 / RFU, SLC12A2 / Fold change vs veh, SLC12A2 / RFU, IBTK / Fold change vs veh, IBTK / RFU, ESF1 / Fold change vs veh, ESF1 / Fold change vs veh, TMEM50B / RFU, TAOK1 / Fold change vs veh, TAOK1 / RFU, ACBD3 / Fold change vs veh, ACBD3 / RFU, TMA16 / Fold change vs veh, TMA16 / RFU, RWDD3 / Fold change vs veh, RWDD3 / RFU, BCAT1 / Fold change vs veh, BCAT1 / RFU, EDEM3 / Fold change vs veh, EDEM3 / RFU, TMEM33 / Fold change vs veh, TMEM33 / RFU, WDR75 / Fold change vs veh, WDR75 / RFU, AHCTF1 / Fold change vs veh, AHCTF1 / RFU, TFRC / Fold change vs veh, TFRC / RFU, ZDHHC17 / Fold change vs veh, ZDHHC17 / RFU, NOM1 / Fold change vs veh, NOM1 / RFU, ARL8B / Fold change vs veh, ARL8B / RFU, ZBTB11 / Fold change vs veh, ZBTB11 / RFU, TAMM41 / Fold change vs veh, TAMM41 / RFU, KIAA1704 /// LOC100996395 / Fold change vs veh, KIAA1704 /// LOC100996395 / RFU, ING1 / Fold change vs veh, ING1 / RFU, TRMT61B / Fold change vs veh, TRMT61B / RFU, FUBP3 / Fold change vs veh, FUBP3 / RFU, TP53 / Fold change vs veh, TP53 / RFU, TNKS2 / Fold change vs veh, TNKS2 / RFU, ZFP14 / Fold change vs veh, ZFP14 / RFU, ACTR2 / Fold change vs veh, ACTR2 / RFU, PPP3R1 / Fold change vs veh, PPP3R1 / RFU, PIK3R1 / Fold change vs veh, PIK3R1 / RFU, HNRNPA1 / Fold change vs veh, HNRNPA1 / RFU, RNF170 / Fold change vs veh, RNF170 / RFU, ZNF28 / Fold change vs veh, ZNF28 / RFU, RNGTT / Fold change vs veh, RNGTT / RFU, OGT / Fold change vs veh, OGT / RFU, BRD1 / Fold change vs veh, BRD1 / RFU, MARS / Fold change vs veh, MARS / RFU, ZNF655 / Fold change vs veh, ZNF655 / RFU, FAHD1 / Fold change vs veh, FAHD1 / RFU, BDP1 / Fold change vs veh, BDP1 / RFU, LRRCC1 / Fold change vs veh, LRRCC1 / RFU, ARID1A / Fold change vs veh, ARID1A / RFU, ZNF146 / Fold change vs veh, ZNF146 / RFU, ZNF330 / Fold change vs veh, ZNF330 / RFU, GPN3 / Fold change vs veh, GPN3 / RFU, C9orf123 / Fold change vs veh, C9orf123 / RFU, N4BP2L2 / Fold change vs veh, N4BP2L2 / RFU, ARFIP1 / Fold change vs veh, ARFIP1 / RFU, FAM179B / Fold change vs veh, FAM179B / RFU, BCL10 / Fold change vs veh, BCL10 / RFU, UHRF1BP1L / Fold change vs veh, UHRF1BP1L / RFU, BET1 / Fold change vs veh, BET1 / RFU, CNOT2 / Fold change vs veh, CNOT2 / RFU, ZNF268 / Fold change vs veh, ZNF268 / Fold change vs veh, ZNF507 / RFU, DGCR2 / Fold change vs veh, DGCR2 / RFU, WDSUB1 / Fold change vs veh, WDSUB1 / Fold change vs veh, HSP90B1 /// MIR3652 / RFU, ADSS / Fold change vs veh, ADSS / RFU, GK / Fold change vs veh, GK / RFU, ZNF148 / Fold change vs veh, ZNF148 / RFU, TAF9 / Fold change vs veh, TAF9 / RFU, SLC1A5 / Fold change vs veh, SLC1A5 / RFU, SLMO2 / Fold change vs veh, SLMO2 / RFU, ABCC4 / Fold change vs veh, ABCC4 / RFU, LOC101060439 /// RAP1B / Fold change vs veh, LOC101060439 /// RAP1B / RFU, RFX7 / Fold change vs veh, RFX7 / RFU, GTPBP10 / Fold change vs veh, GTPBP10 / RFU, CNEP1R1 / Fold change vs veh, CNEP1R1 / RFU, BIVM-ERCC5 /// ERCC5 / Fold change vs veh, BIVM-ERCC5 /// ERCC5 / RFU, ILF3 / Fold change vs veh, ILF3 / RFU 11762660_at / Fold change /veh 11762660_at / RFU VCAN (11757783_s_at) / Fold change /veh VCAN (11757783_s_at) / RFU DDX43 (11728927_at) / Fold change /veh DDX43 (11728927_at) / RFU KRT8 (11758188_x_at) / Fold change /veh KRT8 (11758188_x_at) / RFU NKD1 (11759106_at) / Fold change /veh NKD1 (11759106_at) / RFU SRD5A1 (11742802_a_at) / Fold change /veh SRD5A1 (11742802_a_at) / RFU TPSAB1 /// TPSB2 (11721975_s_at) / Fold change /veh TPSAB1 /// TPSB2 (11721975_s_at) / RFU GSTM3 (11746129_a_at) / Fold change /veh GSTM3 (11746129_a_at) / RFU IL23R (11737362_x_at) / Fold change /veh IL23R (11737362_x_at) / RFU TMEM51 (11727254_a_at) / Fold change /veh TMEM51 (11727254_a_at) / RFU PIWIL2 (11732686_x_at) / Fold change /veh PIWIL2 (11732686_x_at) / RFU ORM1 (11744905_x_at) / Fold change /veh ORM1 (11744905_x_at) / RFU CCDC152 (11743942_at) / Fold change /veh CCDC152 (11743942_at) / RFU ECM1 (11717891_a_at) / Fold change /veh ECM1 (11717891_a_at) / RFU IL23R (11748794_a_at) / Fold change /veh IL23R (11748794_a_at) / RFU TNFAIP8L3 (11732012_x_at) / Fold change /veh TNFAIP8L3 (11732012_x_at) / RFU MBOAT4 (11741988_at) / Fold change /veh MBOAT4 (11741988_at) / RFU 11764193_at / Fold change /veh 11764193_at / RFU TMEM53 (11763286_at) / Fold change /veh TMEM53 (11763286_at) / RFU MAGEB2 (11727129_at) / Fold change /veh MAGEB2 (11727129_at) / RFU TMEM200A (11744735_a_at) / Fold change /veh TMEM200A (11744735_a_at) / RFU CCDC152 (11751479_a_at) / Fold change /veh CCDC152 (11751479_a_at) / RFU FAM211A (11726209_a_at) / Fold change /veh FAM211A (11726209_a_at) / RFU RGS16 (11746705_a_at) / Fold change /veh RGS16 (11746705_a_at) / RFU VCAN (11755009_s_at) / Fold change /veh VCAN (11755009_s_at) / RFU RHOB (11743442_s_at) / Fold change /veh RHOB (11743442_s_at) / RFU RGS16 (11720943_a_at) / Fold change /veh RGS16 (11720943_a_at) / RFU RGS16 (11720944_at) / Fold change /veh RGS16 (11720944_at) / RFU, VPS4B / Fold change vs veh, VPS4B / RFU, CREB1 / Fold change vs veh, CREB1 / RFU, DNAJC13 / Fold change vs veh, DNAJC13 / RFU, GNAQ / Fold change vs veh, GNAQ / RFU, CDK5R1 / Fold change vs veh, CDK5R1 / RFU, ZRANB3 / Fold change vs veh, ZRANB3 / RFU, CUL4A / Fold change vs veh, CUL4A / RFU, CCNY / Fold change vs veh, CCNY / RFU, UFL1 / Fold change vs veh, UFL1 / RFU, COG3 / Fold change vs veh, COG3 / RFU, DIAPH2 / Fold change vs veh, DIAPH2 / RFU, SKA2 / Fold change vs veh, SKA2 / RFU, AFF3 / Fold change vs veh, AFF3 / RFU, LMF1 / Fold change vs veh, LMF1 / RFU, IPO11 / Fold change vs veh, IPO11 / RFU, DFFB / Fold change vs veh, DFFB / RFU, FOXP1 / Fold change vs veh, FOXP1 / RFU, CARD8 / Fold change vs veh, CARD8 / RFU, STRN3 / Fold change vs veh, STRN3 / RFU, ADK / Fold change vs veh, ADK / RFU, RASSF2 / Fold change vs veh, RASSF2 / RFU, WIPF1 / Fold change vs veh, WIPF1 / RFU, LARP1B / Fold change vs veh, LARP1B / RFU, RASA1 / Fold change vs veh, RASA1 / RFU, RB1 / Fold change vs veh, RB1 / RFU, PPFIA1 / Fold change vs veh, PPFIA1 / RFU, MAT2A / Fold change vs veh, MAT2A / RFU, CCT5 / Fold change vs veh, CCT5 / RFU, WDR92 / Fold change vs veh, WDR92 / RFU, CUX1 / Fold change vs veh, CUX1 / RFU, TTC7A / Fold change vs veh, TTC7A / RFU, TMEM135 / Fold change vs veh, TMEM135 / RFU, DEPTOR / Fold change vs veh, DEPTOR / RFU, CPM / Fold change vs veh, CPM / RFU, DNAJB6 / Fold change vs veh, DNAJB6 / RFU, CACNA2D3 / Fold change vs veh, CACNA2D3 / RFU, DTX4 / Fold change vs veh, DTX4 / RFU, TFCP2 / Fold change vs veh, TFCP2 / RFU, GMCL1 /// GMCL1P1 / Fold change vs veh, GMCL1 /// GMCL1P1 / RFU, AEBP2 / Fold change vs veh, AEBP2 / RFU, SNHG1 /// SNORD22 /// SNORD25 /// SNORD26 /// SNORD27 /// SNORD28 /// SNORD29 /// SNORD31 / Fold change vs veh, SNHG1 /// SNORD22 /// SNORD25 /// SNORD26 /// SNORD27 /// SNORD28 /// SNORD29 /// SNORD31 / Fold change (Aza/veh), C12orf56 (ProbeSet 11735607_a_at) / Fold change (ACY-1035/veh), C12orf56 (ProbeSet 11735607_a_at) / Fold change (Aza/veh), FGFR1OP (ProbeSet 11751329_s_at) / Fold change (ACY-1035/veh), FGFR1OP (ProbeSet 11751329_s_at) / Fold change (Aza/veh), VPS36 (ProbeSet 11739960_a_at) / Fold change (ACY-1035/veh), VPS36 (ProbeSet 11739960_a_at) / RFU SYPL1 (11715823_x_at) / Fold change /veh SYPL1 (11715823_x_at) / RFU IGFBP7 (11715501_s_at) / Fold change /veh IGFBP7 (11715501_s_at) / RFU REEP3 (11722064_at) / Fold change /veh REEP3 (11722064_at) / RFU IGLL1 (11728026_x_at) / Fold change /veh IGLL1 (11728026_x_at): dose or concentration left out as unconfirmed
# Conditions: ProbeSet 11719493_s_at; LIST B
smiles,measurement,value
Nc1ncn([C@@H]2O[C@H](CO)[C@@H](O)[C@H]2O)c(=O)n1 [azacitidine],"RFU, TAF9",607.12 RFU
